Key:
P2X2/3 = molecular target: T1, P2X2/3 (Homo sapiens, UniProt P56373+Q9UBL9); test: P2X2/3 FLIPR intracellular calcium assay; assay type: cell-based; conditions: agonist at EC75, species (human or rat) not given
T1 sequence (Q9UBL9 1-471): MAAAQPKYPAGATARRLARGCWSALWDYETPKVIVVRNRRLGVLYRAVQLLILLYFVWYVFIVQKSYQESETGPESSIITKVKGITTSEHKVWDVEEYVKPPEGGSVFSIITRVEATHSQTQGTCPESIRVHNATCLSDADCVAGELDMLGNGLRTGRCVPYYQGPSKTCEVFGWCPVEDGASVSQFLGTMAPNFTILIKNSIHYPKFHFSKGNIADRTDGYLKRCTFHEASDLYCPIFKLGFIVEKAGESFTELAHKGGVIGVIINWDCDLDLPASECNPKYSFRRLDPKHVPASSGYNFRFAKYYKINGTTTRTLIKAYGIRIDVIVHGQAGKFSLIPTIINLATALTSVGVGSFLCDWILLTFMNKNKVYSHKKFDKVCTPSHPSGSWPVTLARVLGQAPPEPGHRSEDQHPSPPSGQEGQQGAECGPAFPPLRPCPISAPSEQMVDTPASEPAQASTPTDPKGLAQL
T1 sequence (P56373 1-397): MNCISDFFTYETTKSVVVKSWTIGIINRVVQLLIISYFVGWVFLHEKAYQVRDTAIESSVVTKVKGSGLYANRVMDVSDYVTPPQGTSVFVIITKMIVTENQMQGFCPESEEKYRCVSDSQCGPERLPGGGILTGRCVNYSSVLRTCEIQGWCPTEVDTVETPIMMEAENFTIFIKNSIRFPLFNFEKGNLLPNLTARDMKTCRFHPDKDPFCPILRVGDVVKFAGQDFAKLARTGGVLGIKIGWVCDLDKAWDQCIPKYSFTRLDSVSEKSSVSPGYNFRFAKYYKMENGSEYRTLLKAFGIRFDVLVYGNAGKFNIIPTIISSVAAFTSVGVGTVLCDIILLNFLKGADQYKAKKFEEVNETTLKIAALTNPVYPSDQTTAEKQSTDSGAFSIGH
How it was run: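 Stable human P2X2/3 TRex293 cells (doxycycline-induced) loaded with Calcium 4 dye; compounds, 11-point half-log series from 2 mM top stock, preincubated 15 min at RT in HBSS/HEPES pH 7.4 with 1.8 mM CaCl2. Agonist added at EC75; fluorescence change versus no-compound wells gave IC50.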

P2X3 = molecular target: T2, P2X3 (UniProt P56373); test: P2X3 FLIPR intracellular calcium assay; assay type: cell-based; conditions: agonist at EC75, species (human or rat) not given
T2 sequence (P56373 1-397): T1 sequence (P56373 1-397)
How it was run: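 Human P2X3-HEK, human P2X2/3-TRex293, rat P2X2/3-TRex293 or rat P2X3 TRex-CHO cells loaded with Calcium 4 dye (1.8 mM probenecid, pH 7.4).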

Row | IC50 (P2X2/3) [nM] | IC50 (P2X3) [nM] | Structure (SMILES)
1 | 1000 to 10000 | 100 to 1000 | Cc1ccc(-c2cnc3c(Nc4nccs4)cc(C(=O)NCc4ccn(C)c(=O)c4)cn23)s1 [Example 93]
2 | 1 to 100 | 1 to 100 | CCc1cnnn1-c1cc(C(=O)N[C@@H](CC)c2nnc[nH]2)cn2c(-c3ccc(C)s3)cnc12 [Example 58]
3 | 100 to 1000 | 100 to 1000 | Cc1ccc(-c2cnc3c(NC4CCCCC4)cc(C(=O)N[C@@H](C)c4nnc[nH]4)cn23)s1 [Example 121]
4 | 100 to 1000 | 1 to 100 | Cc1ccc(-c2cnc3c(-n4nncc4C)cc(C(=O)N[C@@H](C)c4nnc[nH]4)cn23)s1 [Example 29]
5 | 100 to 1000 | 1 to 100 | Cc1ccc(-c2cnc3c(N4CCC(C)(C)CC4)cc(C(=O)N[C@@H](C)c4nnc[nH]4)cn23)s1 [Example 129]
6 | 100 to 1000 | 1 to 100 | Cc1ncc(CNC(=O)c2cc(-n3nncc3CC(F)(F)F)c3ncc(-c4ncc(C)s4)n3c2)cn1 [Example 82]
7 | 1000 to 10000 | 100 to 1000 | Cc1ccc(-c2cnc3c(Nc4nccs4)cc(C(=O)N[C@@H](C)c4nnc[nH]4)cn23)s1 [Example 92]
8 | 1 to 100 | > 10000 | CCc1cnnn1-c1cc(C(=O)N[C@H](C)c2nc(C)no2)cn2c(-c3ccc(C)s3)cnc12 [Example 88]
9 | 1 to 100 | 1 to 100 | Cc1ccc(-c2cnc3c(-n4nncc4C(C)C)cc(C(=O)N[C@@H](C)c4nnc[nH]4)cn23)s1 [Example 37]
10 | 1000 to 10000 | 100 to 1000 | CCCSc1cnc2c(N3CCC(C)CC3)cc(C(=O)N[C@@H](C)c3nnc[nH]3)cn12 [Example 10, (S)—N-(1-(4H-1,2,4-Triazol-3-yl)ethyl)-8-(4-methylpiperidin-1-yl)-3-(propylthio)imidazo[1,2-a]pyridine-6-carboxamide]
11 | 1 to 100 | > 10000 | Cc1ncc(CNC(=O)c2cc(-n3nncc3C3CCC3)c3ncc(-c4ccc(C)s4)n3c2)cn1 [Example 49]
12 | 1 to 100 | 1 to 100 | Cc1ccc(-c2cnc3c(N4CCC(C)(C(N)=O)CC4)cc(C(=O)N[C@@H](C)c4nnc[nH]4)cn23)s1 [Example 12, (S)—N-(1-(4H-1,2,4-Triazol-3-yl)ethyl)-8-(4-carbamoyl-4-methylpiperidin-1-yl)-3-(5-methylthiophen-2-yl)imidazo[1,2-a]pyridine-6-carboxamide]
13 | 1 to 100 | 1 to 100 | Cc1ncc(CNC(=O)c2cc(-n3nncc3C(F)F)c3ncc(-c4ncc(C)s4)n3c2)cn1 [Example 47]
14 | 1 to 100 | > 10000 | Cc1ccc(CNC(=O)c2cc(-n3nnnc3CC3CC3)c3ncc(-c4ccc(C)s4)n3c2)cn1 [Example 156]
15 | 100 to 1000 | 100 to 1000 | Cc1ccc(CNC(=O)c2cc(-n3nnnc3C(F)F)c3ncc(-c4ncc(C)s4)n3c2)cn1 [Example 173]
16 | 100 to 1000 | 1 to 100 | Cc1ccc(CNC(=O)c2cc(-n3nnnc3C(C)C)c3ncc(-c4ccc(C)s4)n3c2)cn1 [Example 151]
17 | 1 to 100 | > 10000 | Cc1ccc(CNC(=O)c2cc(-n3nncc3C(C)C)c3ncc(-c4ccc(C)s4)n3c2)cn1 [Example 45]
18 | 1000 to 10000 | 100 to 1000 | Cc1cccc(-c2cnc3c(N4CCC(C)CC4)cc(C(=O)N[C@@H](C)c4ncn[nH]4)cn23)c1 [Example 149]
19 | 100 to 1000 | 1000 to 10000 | Cc1ccc(-c2cnc3c(-n4c(C)nnc4C)cc(C(=O)N[C@@H](C)c4nnc[nH]4)cn23)s1 [Example 3, (S)—N-(1-(4H-1,2,4-Triazol-3-yl)ethyl)-8-(3,5-dimethyl-4H-1,2,4-triazol-4-yl)-3-(5-methylthiophen-2-yl)imidazo[1,2-a]pyridine-6-carboxamide]

Row | IC50 (P2X2/3) [nM] | IC50 (P2X3) [nM] | Structure (SMILES)
20 | 100 to 1000 | > 10000 | CCc1ccnn1-c1cc(C(=O)NCc2ccc(C)nc2)cn2c(-c3ccc(C)s3)cnc12 [Example 6, 8-(5-Ethyl-1H-pyrazol-1-yl)-N-((6-methylpyridin-3-yl)methyl)-3-(5-methylthiophen-2-yl)imidazo[1,2-a]pyridine-6-carboxamide]
21 | 1 to 100 | 1 to 100 | COc1ncc(CNC(=O)c2cc(-n3nncc3C(F)(F)F)c3ncc(-c4ccc(C)s4)n3c2)cn1 [Example 44]
22 | 1 to 100 | 1 to 100 | Cc1ccc(-c2cnc3c(-n4nncc4C(F)F)cc(C(=O)N[C@@H](C)c4nnc[nH]4)cn23)o1 [Example 60]
23 | 1 to 100 | 1 to 100 | COc1ncc(CNC(=O)c2cc(-n3nncc3C3CC3)c3ncc(-c4ccc(C)s4)n3c2)cn1 [Example 42]
24 | 100 to 1000 | 1 to 100 | COC1(C)CCN(c2cc(C(=O)N[C@@H](C)c3nnc[nH]3)cn3c(-c4ccc(C)s4)cnc23)CC1 [Example 139]
25 | 100 to 1000 | 1 to 100 | Cc1ccc(-c2cnc3c(N4CCC(F)CC4)cc(C(=O)N[C@@H](C)c4nnc[nH]4)cn23)s1 [Example 137]
26 | 100 to 1000 | 1 to 100 | Cc1ccc(-c2cnc3c(-c4ccnn4C)cc(C(=O)N[C@@H](C)c4nnc[nH]4)cn23)s1 [Example 100]
27 | 1 to 100 | 1 to 100 | Cc1ccc(CNC(=O)c2cc(-n3nncc3C(F)(F)F)c3ncc(-c4ccc(C)s4)n3c2)cn1 [Example 30]
28 | 1 to 100 | 1 to 100 | Cc1ccc(-c2cnc3c(-n4nncc4CC(F)(F)F)cc(C(=O)N[C@@H](C)c4nnc[nH]4)cn23)s1 [Example 81]
29 | 100 to 1000 | 100 to 1000 | Cc1ncc(CNC(=O)c2cc(-n3nncc3C(F)F)c3ncc(-c4cnc(C)s4)n3c2)cn1 [Example 66]
30 | 100 to 1000 | > 10000 | Cc1ccc(-c2cnc3c(-n4nnnc4C4CCC4)cc(C(=O)NC(C)c4cnccn4)cn23)s1 (centres unmarked) [Example 160]
31 | 1 to 100 | 1 to 100 | CCCc1nnnn1-c1cc(C(=O)N[C@@H](C)c2nnc[nH]2)cn2c(-c3ccc(C)s3)cnc12 [Example 179]
32 | 100 to 1000 | 1 to 100 | COC1CCN(c2cc(C(=O)N[C@@H](C)c3nnc[nH]3)cn3c(-c4ccc(C)s4)cnc23)C1 (some centres unmarked) [Example 138]
33 | 1000 to 10000 | 100 to 1000 | C[C@H](NC(=O)c1cc(-n2nncc2C(F)F)c2ncc(-c3ccc(C(F)(F)F)s3)n2c1)c1nnc[nH]1 [Example 59]
34 | 1 to 100 | 1 to 100 | C[C@H](NC(=O)c1cc(-n2nncc2C(C)(F)F)c2ncc(-c3ccc(Cl)s3)n2c1)c1nnc[nH]1 [Example 76]
35 | 1 to 100 | > 10000 | Cc1cnc(CNC(=O)c2cc(-n3nnnc3C3CCC3)c3ncc(-c4ccc(C)s4)n3c2)cn1 [Example 164]
36 | 100 to 1000 | 1 to 100 | CCC(=O)N(c1cc(C(=O)N[C@@H](C)c2nnc[nH]2)cn2c(-c3ccc(C)s3)cnc12)C1CC1 [Example 188]
37 | 1 to 100 | 1 to 100 | Cc1ccc(-c2cnc3c(N4CCC(F)(F)CC4)cc(C(=O)N[C@@H](C)c4nnc[nH]4)cn23)s1 [Example 130]
